Assay results reported in patent US20260232720A1, “NEW MEDICAL USE OF SEVUPARIN IN THE TREATMENT OF ENDOTOXEMIA” (Modus Therapeutics AB, priority 2023, published 2026).
Read-outs that look alike come from different tables or passages of the source.

Key:
healthy volunteers [1] = settings: for Basophil count / Eosinophil count / Lymphocyte count / Monocyte count / Neutrophil count: LS Means, IV LPS 1 ng/kg
From the text: (§1) A randomized, placebo-controlled study to evaluate the effects of intravenous sevuparin on LPS reactions (first part), and the interaction between subcutaneous enoxaparin and sevuparin on coagulation responses in healthy volunteers (second part), has been performed.
(§2) Objectives for first part of the clinical study: To evaluate the effect of intarvenous (IV) sevuparin on safety and tolerability and inflammatory responses following an intravenous (IV) LPS challenge.
(§3) • Leucocyte differential • Cytokines (including IL-6, IL-8, IL-10 and TNF-α) • Flow cytometry (Neutrophils, monocyte subsets, T cells, B cells, NK cells, dendritic cells, including neutrophil extracellular traps) • Explorative biomarkers: acute phase reactants and components measurable in blood, serum and plasma of relevance for septic inflammation may be measured and reported separately.
(§4) In the first part of the study, sevuparin (or matching placebo) is administered by IV infusion (bolus loading dose followed by continuous infusion over 6 hours); In the second part of the study, sevuparin and enoxaparin are given by subcutaneous injection.
(§5) The sevuparin dose was as follows in the first part of the study: • Group 1 (sevuparin low dose): loading bolus dose of 0.3 mg/kg bodyweight, followed by IV infusion at 0.08 mg/kg/h; • Group 2 (sevuparin intermediate dose): loading dose of 1 mg/kg bodyweight, followed by IV infusion at 0.25 mg/kg/h; • Group 3 (sevuparin high dose): loading dose of 3 mg/kg bodyweight, followed by IV infusion at 0.75 mg/kg/h.
(§6) In the first part of the study, 1 ng/kg bodyweight of LPS was administered intravenously.
(§7) In the first part of the study, a total of 48 male and female healthy volunteers were enrolled and randomized over 4 treatment groups (sevuparin low, intermediate or high dose or matching placebo). Each treatment group consisted of 12 healthy volunteers. All subjects underwent an intravenous LPS challenge.
(§8) In the first part of the current study, subjects are administered with intravenous LPS 30 min after the start of the infusion of sevuparin on study Day 1. LPS, purified lipopolysaccharide prepared from Escherichia Coli: 113: H10: K negative (U.S. Standard Reference Endotoxin) is used. This LPS batch was manufactured in the US by List Biological Laboratories. All participants received 1 ng/kg E. coli purified LPS, administered as a 2-minute infusion. To ensure that participants stay adequately hydrated, additionally saline (NaCl 0.9%) or glucose/saline was infused (2.5% glucose/0.45% sodium chloride) starting approximately 2 hours before LPS administration at a rate of 750 ml/h, until 6 h afterwards at a rate of 150 ml/h (Hijma et al., 2020). During infusion of study drug or placebo, infused over 6 hours at an infusion rate of 80 mL/h, the infusion rate of glucose/saline was lowered to 80 mL/h.
Blood and other biological samples are collected for the following clinical laboratory tests: Haematology; Chemistry and electrolytes; Glucose; […] (after 4-hours fasting); […] (conjugated bilirubin is reported only when total bilirubin is outside the reference range); Virology; Urinalysis; Pregnancy (for women, serum pregnancy test is performed at screening and urine pregnancy test at other visits when scheduled, and if pregnancy is suspected during the study); Alcohol screening; and Urine drug screening.

[2] = tested on: inflammatory biomarkers cytokines and C-Reactive Protein (CRP); settings: for C-Reactive Protein / IL-6 in plasma / IL-8 in plasma / IL-10 in plasma / TNF-α in plasma: LS Means, IV LPS 1 ng/kg
From the text: as §1, §2, §3, §4, §5, §6, §7, §8
Blood is collected at time points as shown in Table 1 below for the assessment of cytokines. Venous blood (4 mL) is collected in K2EDTA tubes. Plasma is collected after centrifugation at 2000×g for 20 minutes at room temperature and stored at −80° C., in 3×0.5 ml aliquots until analysis. Samples are analysed by Ardena Laboratories Assen.
(§9) Throughout the Figures and tables related to the clinical study test results, the following abbreviations and its definitions are used: • IV LPS Placebo means subjects who have been challenged with intravenous LPS and thereafter received placebo intravenously as described above. • Sevuparin 0.3/0.08 means (sevuparin low dose): loading bolus dose of 0.3 mg/kg bodyweight, followed by 0.08 mg/kg/h intravenously; • Sevuparin 1/0.25 means (sevuparin intermediate dose): loading dose of 1 mg/kg bodyweight, followed by 0.25 mg/kg/h intravenously; • Sevuparin 3/0.75 means (sevuparin high dose): loading dose of 3 mg/kg bodyweight, followed by 0.75 mg/kg/h intravenously.

healthy volunteers [3] = settings: for Body temperature / Diastolic blood pressure / Heart rate / NRS feeling sick / Systolic blood pressure: LS Means, IV LPS 1 ng/kg
From the text: as §1, §2, §4, §5, §6, §7, §8
Evaluations of systolic and diastolic blood pressure, pulse rate, respiratory rate, and temperature is performed throughout the study. Pulse and blood pressure is taken after 5 minutes in the supine position. Automated oscillometric blood pressures and pulse rate is measured using a Dash 3000,
Subjective assessment of feeling sick is recorded by the subjects during the first part of the study (IV LPS infusion) on a numeric rating scale (NRS) electronically.
as §9

[4] = sevuparin 0.3/0.08 (loading bolus 0.3 mg/kg, then 0.08 mg/kg/h IV)
[5] = sevuparin 1.0/0.25 (loading 1 mg/kg, then 0.25 mg/kg/h IV)
[6] = sevuparin 3.0/0.75 (loading 3 mg/kg, then 0.75 mg/kg/h IV)
[7] = IV LPS, in words, all doses vs placebo

sevuparin
change in basophils compared to placebo control (healthy volunteers [1]; IV LPS, in words): dose dependent pronounced increase
change in neutrophils compared to placebo control (healthy volunteers [1]; IV LPS, in words): dose dependent pronounced increase
change in lymphocytes compared to placebo control (healthy volunteers [1]; IV LPS, in words, FIG. 1): dose dependent pronounced increase
Basophil count (healthy volunteers [1]; [4]): 0.029 E9/L
Eosinophil count (healthy volunteers [1]; [4]): 0.114 E9/L
Lymphocyte count (healthy volunteers [1]; [4]): 1.046 E9/L
Monocyte count (healthy volunteers [1]; [4]): 0.335 E9/L
Neutrophil count (healthy volunteers [1]; [4]): 6.650 E9/L
Basophil count (healthy volunteers [1]; [5]): 0.032 E9/L
Eosinophil count (healthy volunteers [1]; [5]): 0.105 E9/L
Lymphocyte count (healthy volunteers [1]; [5]): 1.136 E9/L
Monocyte count (healthy volunteers [1]; [5]): 0.339 E9/L
Neutrophil count (healthy volunteers [1]; [5]): 5.788 E9/L
Basophil count (healthy volunteers [1]; [6]): 0.039 E9/L
Eosinophil count (healthy volunteers [1]; [6]): 0.117 E9/L
Lymphocyte count (healthy volunteers [1]; [6]): 1.369 E9/L
Monocyte count (healthy volunteers [1]; [6]): 0.376 E9/L
Neutrophil count (healthy volunteers [1]; [6]): 7.073 E9/L
therapeutic effect on C-Reactive Protein (CRP) ([2]; IV LPS, in words, vs placebo): no therapeutic effect
therapeutic effect on the inflammatory biomarkers cytokines ([2]; IV LPS, in words, vs placebo): no therapeutic effect
C-Reactive Protein [2, 4]: 10.893 mg/mL
IL-6 in plasma [2, 4]: 19.587 pg/mL
IL-8 in plasma [2, 4]: 19.393 pg/mL
IL-10 in plasma [2, 4]: 8.125 pg/mL
TNF-α in plasma [2, 4]: 5.574 pg/mL
C-Reactive Protein [2, 5]: 11.080 mg/mL
IL-6 in plasma [2, 5]: 16.012 pg/mL
IL-8 in plasma [2, 5]: 19.843 pg/mL
IL-10 in plasma [2, 5]: 11.825 pg/mL
TNF-α in plasma [2, 5]: 5.415 pg/mL
C-Reactive Protein [2, 6]: 11.853 mg/mL
IL-6 in plasma [2, 6]: 13.712 pg/mL
IL-8 in plasma [2, 6]: 17.820 pg/mL
IL-10 in plasma [2, 6]: 7.527 pg/mL
TNF-α in plasma [2, 6]: 5.039 pg/mL
respiratory rate compared to placebo (healthy volunteers [3]; FIG. 2, IV LPS, highest intravenously administered dose of sevuparin): improvement of the respiratory rate
therapeutic impact on body temperature (healthy volunteers [3]; [7]): did not have any therapeutic impact
therapeutic impact on diastolic blood pressure (healthy volunteers [3]; [7]): did not have any therapeutic impact
therapeutic impact on feeling sick (healthy volunteers [3]; [7]): did not have any therapeutic impact
therapeutic impact on heart rate (healthy volunteers [3]; [7]): did not have any therapeutic impact
therapeutic impact on systolic blood pressure (healthy volunteers [3]; [7]): did not have any therapeutic impact
Body temperature (healthy volunteers [3]; [4]): 37.13
Diastolic blood pressure (healthy volunteers [3]; [4]): 63.5 mm Hg
Heart rate (healthy volunteers [3]; [4]): 69.7 bpm
NRS feeling sick (healthy volunteers [3]; [4]): 1.9
Systolic blood pressure (healthy volunteers [3]; [4]): 115.5 mm Hg
Body temperature (healthy volunteers [3]; [5]): 36.93
Diastolic blood pressure (healthy volunteers [3]; [5]): 63.9 mm Hg
Heart rate (healthy volunteers [3]; [5]): 71.1 bpm
NRS feeling sick (healthy volunteers [3]; [5]): 1.9
Systolic blood pressure (healthy volunteers [3]; [5]): 117.3 mm Hg
Body temperature (healthy volunteers [3]; [6]): 36.97
Diastolic blood pressure (healthy volunteers [3]; [6]): 62.7 mm Hg
Heart rate (healthy volunteers [3]; [6]): 70.5 bpm
NRS feeling sick (healthy volunteers [3]; [6]): 2.0
Systolic blood pressure (healthy volunteers [3]; [6]): 114.0 mm Hg
